Data: US8653024B2, “Use of AMPs for treatment of UTI/cystitis” (Adenium Biotech Aps, priority 2009, dated 2014)
Values joined by “and” are separate entries in the source; they are usually repeats but may differ in a detail not shown here. Equal entries are not always repeated. “Also recorded” adds a separate entry of the source.

Columns and labels:
[1] = system: Escherichia coli DSA 443; assay: Murine urinary tract infection (UTI) model, Example 1: colony counts in urine, bladder and kidney; assay type: in vivo; conditions: for Mean colony counts + SEM, bladder day 3 / Mean colony counts + SEM, kidney day 3 / Mean colony counts + SEM, urine day 1 / Mean colony counts + SEM, urine day 2 / Mean colony counts + SEM, urine day 3: female OF-1 mice; for Mean colony counts + SEM, urine day 1: day 1 post infection, before first treatment; for Mean colony counts + SEM, urine day 2: day 2 post infection; for Bacterial reduction in the urine compared to vehicle treatment: p<0.001
[2] = system: Escherichia coli DSA 443; assay: Murine urinary tract infection model, Example 2 (carried out as described in Example 1); assay type: in vivo; conditions: for Mean colony counts ± SEM, bladder day 3 / Mean colony counts ± SEM, kidney day 3 / Mean colony counts ± SEM, urine day 1 / Mean colony counts ± SEM, urine day 3: mice; for Mean colony counts ± SEM, bladder day 3 / Mean colony counts ± SEM, kidney day 3 / Mean colony counts ± SEM, urine day 3: day 3 post infection; for Mean colony counts ± SEM, urine day 1: day 1 post infection, before first treatment; for Bacterial reduction in the kidneys compared to vehicle treatment / Bacterial reduction in the urine compared to vehicle treatment / Bacterial reduction in the bladder compared to vehicle treatment: 10 mg/kg i.v. BID; for Bacterial reduction in the kidneys compared to vehicle treatment: p<0.05; for Effect of treatment compared to Meropenem: 10 mg/kg vs 40 mg/kg Meropenem; for Bacterial reduction in the urine compared to vehicle treatment / Bacterial reduction in the bladder compared to vehicle treatment: after 2 days of treatment; for Bacterial reduction in the urine compared to vehicle treatment: p<0.001; for Bacterial reduction in the bladder compared to vehicle treatment: p<0.01
Protocol: The efficacy of Arenicin administered BID i.v. days 1 and 2 post infection at a rate of 10 ml/kg to female OF-1 mice (14/group), at a dosage of 10 mg/kg, was assessed against E. coli DSA 443. Treatment with 40 mg/kg Meropenem was included as a positive control and treatment with vehicle was included as a negative control.
Starting on day −4 before inoculation, mice were given drinking water containing 5% glucose. On day 0, the bladder of each mouse was emptied of urine, and each mouse was inoculated with 50 microliters bacteria suspension (E. coli DSA 443 9.3 log10 CFU/ml) via a catheter in the urethra into the bladder.
Urine was sampled from all mice at 24 hours post infection, before the first treatment, and colony counts were determined. 48 and 72 hours post infection, urine was sampled from all mice and kept at room temperature until analyzed. CFU was determined in urine samples within 2-3 hours after sampling. On day 3, mice were sacrificed by cervical dislocation and the bladders and kidneys were collected and stored at −80° C. until analyses. Frozen organs were thawed and homogenized with steel beads on a tissue lyser. All samples, urine, kidney and bladder, were 10 fold diluted in saline and 20 microliter spots were applied on blue agar plates in duplicates. Also undiluted urine (100 microliters if possible) was spread on a separate agar plate to determine the colony counts lowest possible detection level (10 CFU/ml). All agar plates were incubated 18-22 hrs at 35° C. in ambient air.
The CFU numbers are log10 transformed before performing calculations to obtain a normal (or closer to normal) distribution. The data are presented below in Table 1 as mean±SEM. Significance levels were calculated with one-way ANOVA, Dunnett's multiple comparison test and are indicated by the stars in the figures.
The experiment was carried out as described in Example 1.
The efficacies of Variant1 and Variant2 (10 mg/kg) (formulated in Ringer acetate pH 6) were investigated following intravenous (i.v.) administration BID day 1 and day 2 post infection with Escherichia coli DSA 443 (clinical isolate, SSI) in a murine Urinary Tract Infection model. Treatment with 40 mg/kg Meropenem was included as a positive control group.

[3] = 10 mg/kg i.v. BID day 1 and day 2

**Q.** Which results are given for C[C@@H](O)[C@H]1C(=O)N2C(C(=O)O)=C(S[C@@H]3CN[C@H](C(=O)N(C)C)C3)[C@H](C)[C@H]12 [Meropenem, reference compound]?
**A.** Bacterial loads in the kidneys compared to vehicle ([1]; 40 mg/kg, day 3 post infection): slightly, but not significantly, reduced; Mean colony counts + SEM, bladder day 3 ([1]; bladder, day 3 post infection, 40 mg/kg (positive control)): 3.9 ± 0.3 log10 CFU; Mean colony counts + SEM, kidney day 3 ([1]; day 3 post infection, 40 mg/kg (positive control)): 1.8 ± 0.3 log10 CFU; Mean colony counts + SEM, urine day 1 ([1]; urine, 40 mg/kg group (positive control)): 7.0 ± 0.4 log10 CFU; Mean colony counts + SEM, urine day 2 ([1]; urine, 40 mg/kg (positive control)): 2.7 ± 0.3 log10 CFU; Mean colony counts + SEM, urine day 3 ([1]; urine, day 3 post infection, 40 mg/kg (positive control)): 2.1 ± 0.3 log10 CFU; Mean colony counts ± SEM, bladder day 3 ([2]; 40 mg/kg (positive control)): 3.9 ± 0.2 log10 CFU; Mean colony counts ± SEM, kidney day 3 ([2]; 40 mg/kg (positive control)): 1.8 ± 0.4 log10 CFU; Mean colony counts ± SEM, urine day 1 ([2]; 40 mg/kg group (positive control)): 6.3 ± 1.0 log10 CFU; Mean colony counts ± SEM, urine day 3 ([2]; 40 mg/kg (positive control)): 1.8 ± 0.4 log10 CFU

**Q.** Which results are given for “Arenicin: antimicrobial polypeptide having the amino acid sequence shown in SEQ ID NO: 1 (GFCWYVCVYRNGVRVCYRRCN; mat_peptide (1)..(21); listed as Arenicola marina)”?
**A.** Effect (CFU reduction) compared to Meropenem ([1]; 10 mg/kg vs 40 mg/kg Meropenem, urine, bladder): comparable to that of Meropenem; also recorded: comparable to the effect of the Meropenem; Bacterial reduction in the urine compared to vehicle treatment ([1]; after 1 day of treatment, 10 mg/kg i.v. BID): significant bacterial reduction; Bacterial reduction in the urine compared to vehicle treatment ([1]; after 2 days of treatment, 10 mg/kg i.v. BID, 10 mg/kg): significantly (p<0.001) reduced the bacterial loads; also recorded: significant bacterial reduction; Bacterial reduction in the bladder compared to vehicle treatment ([1]; after 2 days of treatment, 10 mg/kg i.v. BID, p<0.01, 10 mg/kg): Significant lower (p<0.01) CFU levels; also recorded: significant bacterial reduction; Bacterial reduction in the kidneys compared to vehicle treatment ([1]; day 3 post infection, 10 mg/kg i.v. BID, 10 mg/kg): not significantly lower than the vehicle group; also recorded: slight reduction; Mean colony counts + SEM, bladder day 3 ([1]; bladder, day 3 post infection, 10 mg/kg i.v. BID days 1 and 2, 10 mg/kg): 3.8±0.2 log10 CFU; Mean colony counts + SEM, kidney day 3 ([1]; day 3 post infection, 10 mg/kg i.v. BID days 1 and 2, 10 mg/kg): 1.9±0.3 log10 CFU; Mean colony counts + SEM, urine day 1 ([1]; urine, 10 mg/kg group, 10 mg/kg): 6.9±0.3 log10 CFU; Mean colony counts + SEM, urine day 2 ([1]; urine, after one day of treatment, 10 mg/kg i.v. BID, 10 mg/kg): 3.2±0.5 log10 CFU; Mean colony counts + SEM, urine day 3 ([1]; urine, day 3 post infection, after completed treatment, 10 mg/kg i.v. BID days 1 and 2, 10 mg/kg): 2.3±0.3 log10 CFU and 2.3 ± 0.2 log10 CFU

**Q.** How did the “Bacterial reduction in the kidneys compared to vehicle treatment” value [2] turn out when “Variant1: antimicrobial polypeptide of SEQ ID NO: 2; Y5N+Y17H substitution as compared to Arenicin (SEQ ID NO: 1) (GFCWNVCVYRNGVRVCHRRCN)” was run?
**A.** significant bacterial reduction

**Q.** And the “Effect of treatment compared to Meropenem” value [2]?
**A.** comparable to the effect of treatment with Meropenem

**Q.** And the “Bacterial reduction in the urine compared to vehicle treatment” value [2]?
**A.** significant bacterial reduction

**Q.** And the “Bacterial reduction in the bladder compared to vehicle treatment” value [2]?
**A.** significant bacterial reduction

**Q.** What about the “Mean colony counts ± SEM, bladder day 3” value [2, 3] of the same compound?
**A.** 3.8 ± 0.4 log10 CFU

**Q.** And the “Mean colony counts ± SEM, kidney day 3” value [2, 3]?
**A.** 1.3 ± 0.2 log10 CFU

**Q.** What about the “Mean colony counts ± SEM, urine day 1” value ([2]; 10 mg/kg group) of the same compound?
**A.** 7.1 ± 0.8 log10 CFU

**Q.** What about the “Mean colony counts ± SEM, urine day 3” value [2, 3] of the same compound?
**A.** 2.6 ± 0.4 log10 CFU

**Q.** “Variant2: antimicrobial polypeptide of SEQ ID NO: 3; W4G+Y5H substitution as compared to Arenicin (GFCGHVCVYRNGVRVCYRRCN)” was tested. Which “Bacterial reduction in the kidneys compared to vehicle treatment” value [2] did it give?
**A.** significant bacterial reduction

**Q.** What about the “Effect of treatment compared to Meropenem” value [2] of the same compound?
**A.** comparable to the effect of treatment with Meropenem

**Q.** What about the “Bacterial reduction in the urine compared to vehicle treatment” value [2] of the same compound?
**A.** significant bacterial reduction

**Q.** And the “Bacterial reduction in the bladder compared to vehicle treatment” value [2]?
**A.** significant bacterial reduction

**Q.** And the “Mean colony counts ± SEM, bladder day 3” value [2, 3]?
**A.** 3.7 ± 0.5 log10 CFU

**Q.** What about the “Mean colony counts ± SEM, kidney day 3” value [2, 3] of the same compound?
**A.** 1.5 ± 0.4 log10 CFU

**Q.** And the “Mean colony counts ± SEM, urine day 1” value ([2]; 10 mg/kg group)?
**A.** 5.7 ± 1.0 log10 CFU

**Q.** And the “Mean colony counts ± SEM, urine day 3” value [2, 3]?
**A.** 3.2 ± 0.5 log10 CFU
